Assay results from patent US12447216B2, “Biogenic hemin-based MRI contrast agents, and compositions and methods thereof” (University of Massachusetts, priority 2017, dated 2025).

Key:
[1] = T1 relaxivity (r1) measurement and T1-weighted in vitro MR imaging; assay type: physicochemical
Protocol: Hematin was studied for its properties in MR imaging.
(§1) FIG. 1 is a graph showing r1 values and 1/T1 values according to Fe concentrations of metalloporphyrin-based MRI-CAs after dispersion in water. […] To further evaluate its MRI performance in vivo, hematin at a dose of 2 mg/kg/day, which is within the recommended range for clinical use, was administered into the tail veins of nude mice.
The composition of the prepared He-PEG was confirmed by NMR spectroscopy. […] The ^1H NMR spectrum of the He-PEG nanoparticles confirmed the successful conjugation of He with PEG2000. The magnetic property of the produced He-PEG particles was determined by measuring the longitudinal relaxivity values, which referred to the slope of the 1/T1 (R1) plot versus Fe ion concentration.
FIGS. 5 and 6 show r1 values and 1/T1 values according to Fe concentrations of He—OH after dispersion in water.

[2] = design: species or system mice; settings: mouse, in vivo, iv
Source text: (§2) The biocompatibility of hematin for injection was comprehensively investigated, for example, via blood routine examination, histological analysis, and body weight monitoring.
Another group of mice injected with PBS were used as control.
Meanwhile, blood samples were collected at different intervals after treatment with HeOH-PEG. […] Another group of mice injected of PBS were used as control.

[3] = Histological analysis (hematoxylin and eosin) of major organs; assay type: in vivo; settings: mice; 14 days after administration
Protocol: as §2
Subsequently, hematoxylin and eosin examinations were performed on major organs (e.g., heart, liver, spleen, lung, and kidney) collected from healthy mice and those treated with HeOH-PEG. […] No significant differences were found between the cellular morphology of the studied organs in the HeOH-PEG treated group and the control group (FIG. 10).

[4] = In vivo MR imaging / MR angiography after tail vein injection; settings: nude mice, 2 mg/kg/day, FIG. 2
Protocol: as §1
To study the potential application of HeOH-PEG for in vivo MRI, a series of MR imaging were performed at different time points after HeOH-PEG was injected via tail vein into health node mice (500 μL, 0.48 mmol […] per kg mice). FIG. 11 is the 3D image of MR angiography acquired from the mouse after intravenous injection with HeOH-PEG.
The MR signal enhancement with excellent contrast in the vasculature lasted until 60 min post injection.

[5] = only in a rare case; cited from earlier work
[6] = Body weight monitoring after tail vein injection; assay type: in vivo; settings: mice, versus PBS control, 2 weeks
Source text: as §2

T1 relaxivity value ([1]; 3.0 T MR scanner, dispersion in water, FIG. 1): 0.424 mM⁻¹ s⁻¹
r1 value (longitudinal relaxivity, slope of 1/T1 versus Fe ion concentration) ([1]; dispersion in water): 0.424 s^−1 mM^−1 Fe
blood routine examination parameters versus normal range [2]: within the normal range
Compound: C=CC1=C(C)c2cc3[n-]c(cc4[n-]c(cc5nc(cc1n2)C(C)=C5C=C)c(C)c4CCC(=O)O)c(CCC(=O)O)c3C.O.[Fe+2] [hematin]
T1-weighted in vitro MR imaging signal ([1]; various Fe concentrations): concentration-dependent brightening effect
histological changes in heart, liver, spleen, lung and kidney [3]: no obvious histological changes
T1 signal in vivo after intravenous administration [4]: increase in the T1 signal was clearly observed in the heart and large vessel
excessive hematin dose reported to induce reversible renal shutdown [5]: 12.2 mg/kg
body weight change [6]: no significant changes compared to the control group
